Assay results taken from patent US12077503B2, “Substituted cyclic amides and their use as herbicides” (FMC CORPORATION, priority 2015, dated 2024).

What was measured:
Format in all cases: in vivo
Kochia (Kochia scoparia) [1] = test: Test A preemergence
Summary of the method: (§1)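 Seeded soil received test chemicals as a preemergence directed spray, and seedlings at one to two leaves, 2–10 cm tall, received them postemergence, in a non-phytotoxic, surfactant-containing solvent mixture. Pots were held in a greenhouse for approximately 10 d, then rated for injury from 0, no effect, to 100, complete control.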

[2] = test system: barnyardgrass (Echinochloa crus-galli); test: Test A preemergence
Summary of the method: as §1

[3] = test system: giant foxtail (Setaria faberii); test: Test A preemergence
Summary of the method: as §1

[4] = test system: pigweed (Amaranthus retroflexus); test: Test A preemergence
[5] = test system: ragweed (common ragweed, Ambrosia elatior); test: Test A preemergence
Summary of the method: as §1

[6] = test system: ryegrass, Italian (Italian ryegrass, Lolium multiflorum); test: Test A preemergence
Summary of the method: as §1

[7] = test system: Galium (catchweed bedstraw, Galium aparine); test: Test A postemergence
Summary of the method: as §1

Kochia (Kochia scoparia) [8] = test: Test A postemergence
Summary of the method: as §1

[9] = test system: barnyardgrass (Echinochloa crus-galli); test: Test A postemergence
Summary of the method: as §1

[10] = test system: blackgrass (Alopecurus myosuroides); test: Test A postemergence
Summary of the method: as §1

corn (Zea mays) = test: Test A postemergence
Summary of the method: as §1

[11] = test system: giant foxtail (Setaria faberii); test: Test A postemergence
Summary of the method: as §1

[12] = test system: pigweed (Amaranthus retroflexus); test: Test A postemergence
Summary of the method: as §1

[13] = test system: ragweed (common ragweed, Ambrosia elatior); test: Test A postemergence
Summary of the method: as §1

[14] = test system: ryegrass, Italian (Italian ryegrass, Lolium multiflorum); test: Test A postemergence
Summary of the method: as §1

[15] = test system: wheat (Triticum aestivum); test: Test A postemergence
Summary of the method: as §1

[16] = test system: barnyardgrass (Echinochloa crus-galli); test: Test B flooded paddy test; settings: Flood, 250 g ai/ha; 0 to 100 scale where 0 is no effect and 100 is complete control; 13 to 15 d
Summary of the method: (§2)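 Plants at 2-leaf stage flooded to 3 cm above soil, with compounds applied directly to paddy water and that depth maintained. Plants kept in greenhouse 13–15 d. Visual rating versus controls on a 0 (no effect) to 100 (complete control) scale.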

[17] = test system: ducksalad (Heteranthera limosa); test: Test B flooded paddy test; settings: Flood, 250 g ai/ha; 0 to 100 scale where 0 is no effect and 100 is complete control; 13 to 15 d
Summary of the method: as §2

rice (Oryra sativa) = test: Test B flooded paddy test; settings: Flood, 250 g ai/ha; 0 to 100 scale where 0 is no effect and 100 is complete control; 13 to 15 d
Summary of the method: as §2

[18] = test system: sedge, umbrella (small-flower umbrella sedge, Cyperus difformis); test: Test B flooded paddy test; settings: Flood, 250 g ai/ha; 0 to 100 scale where 0 is no effect and 100 is complete control; 13 to 15 d
Summary of the method: as §2

[19] = test system: blackgrass (Alopecurus myosuroides); test: Test C preemergence; settings: for Plant response rating (scale of 0 to 100), Blackgrass: 31 g ai/ha, 0 is no effect, 100 is complete control; for Plant response rating, Blackgrass: scale 0 to 100, 0 no effect, 100 complete control
Summary of the method: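 Seeds in loam-sand soil treated preemergence, or plants in peat-based medium sprayed postemergence at 2–18 cm (1- to 4-leaf stage), with compound in a non-phytotoxic solvent mixture containing surfactant. Greenhouse-held 13–15 d, then visually rated against controls on a 0–100 scale (0 = no effect, 100 = complete control); dash = not tested.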

[20] = 125 g ai/ha, Preemergence, visual injury after approximately 10 d, 0 to 100 scale where 0 is no effect and 100 is complete control
[21] = 500 g ai/ha, preemergence, 0 to 100 scale, 0 = no effect, 100 = complete control
[22] = 125 g ai/ha, postemergence, visual rating after approx. 10 d, 0 to 100 scale (0 no effect, 100 complete control)
[23] = 500 g ai/ha, postemergence, visual injury, 0 to 100 scale (0 no effect, 100 complete control), approx. 10 d
[24] = Postemergence, 500 g ai/ha, 0 to 100 scale where 0 is no effect and 100 is complete control

| SMILES | Plant response rating, Kochia (Kochia (Kochia scoparia) [1]; [20]) | Plant response rating, Kochia (Kochia (Kochia scoparia) [1]; [21]) | Plant response rating, Barnyardgrass [2, 20] | Plant response rating, Barnyardgrass [2, 21] | Plant response rating, Foxtail, Giant [3, 20] | Plant response rating, Foxtail, Giant [3, 21] | Plant response rating, Pigweed [4, 20] | Plant response rating, Pigweed [4, 21] | Plant response rating, Ragweed [5, 20] | Plant response rating, Ragweed [5, 21] | Plant response rating, Ryegrass, Italian [6, 20] | Plant response rating, Ryegrass, Italian [6, 21] | Plant response rating, Galium [7, 22] | Plant response rating, Kochia (Kochia (Kochia scoparia) [8]; [22]) | Plant response rating, Barnyardgrass [9, 22] | Plant response rating, Blackgrass [10, 22] | Plant response rating, Corn (corn (Zea mays); [22]) | Plant response rating, Foxtail, Giant [11, 22] | Plant response rating, Pigweed [12, 22] | Plant response rating, Ragweed [13, 22] | also measured |
| --- | --- | --- | --- | --- | --- | --- | --- | --- | --- | --- | --- | --- | --- | --- | --- | --- | --- | --- | --- | --- | --- |
| Cc1ccc(C2CN(C)C(=O)C2C(=O)Nc2cccc(F)c2F)cc1 (stereo not drawn) [Compound 662] | 70 | 90 | 90 | 90 | 100 | 100 | 70 | 80 | 80 | 80 | 40 | 90 | 60 | 70 | 90 | 60 | 80 | 90 | 20 | 20 | Plant response rating, Galium [7, 23]: 70; Plant response rating, Kochia (Kochia (Kochia scoparia) [8]; [23]): 70; Plant response rating, Barnyardgrass [9, 23]: 90; Plant response rating, Blackgrass [10, 23]: 80; Plant response rating, Corn (corn (Zea mays); [23]): 90; Plant response rating, Foxtail, Giant [11, 23]: 90; Plant response rating, Pigweed [12, 23]: 50; Plant response rating, Ragweed [13, 23]: 60; Plant response rating, Ryegrass, Italian [14, 22]: 40; Plant response rating, Ryegrass, Italian [14, 23]: 70; Plant response rating, Wheat [15, 22]: 80; Plant response rating, Wheat [15, 23]: 80; Plant response rating, Barnyardgrass [16]: 80; Plant response rating, Ducksalad [17]: 95; Plant response rating, Rice (rice (Oryra sativa)): 20; Plant response rating, Sedge, Umbrella [18]: 0; Plant response rating (scale of 0 to 100), Blackgrass [19]: 70; Plant response rating, Blackgrass ([19]; 62 g ai/ha): 75; Plant response rating, Blackgrass ([19]; 125 g ai/ha): 95; Plant response rating, Blackgrass ([19]; 250 g ai/ha): 98 |
| CN1CC(c2ccc(C(F)(F)F)cc2)C(C(=O)Nc2ccccc2S(C)(=O)=O)C1=O (stereo not drawn) [Compound 624] | 40 | 60 | 90 | 90 | 90 | 90 | 80 | 80 | 60 | 70 | 40 | 40 | 30 | 0 | 80 | 40 | 0 | 80 | 20 | 0 | Plant response rating, Galium [7, 24]: 50; Plant response rating, Kochia (Kochia (Kochia scoparia) [8]; [24]): 60; Plant response rating, Barnyardgrass [9, 24]: 90; Plant response rating, Blackgrass [10, 24]: 50; Plant response rating, Corn (corn (Zea mays); [24]): 40; Plant response rating, Foxtail, Giant [11, 24]: 90; Plant response rating, Pigweed [12, 24]: 60; Plant response rating, Ragweed [13, 24]: 0; Plant response rating, Ryegrass, Italian [14, 22]: 30; Plant response rating, Ryegrass, Italian [14, 24]: 30; Plant response rating, Wheat [15, 22]: 20; Plant response rating, Wheat [15, 24]: 70; Plant response rating, Barnyardgrass [16]: 70; Plant response rating, Ducksalad [17]: 100; Plant response rating, Rice (rice (Oryra sativa)): 20; Plant response rating, Sedge, Umbrella [18]: 0; Plant response rating (scale of 0 to 100), Blackgrass [19]: 50; Plant response rating, Blackgrass ([19]; 62 g ai/ha): 70; Plant response rating, Blackgrass ([19]; 125 g ai/ha): 90; Plant response rating, Blackgrass ([19]; 250 g ai/ha): 90 |
| CN1CC(c2cccc(C(F)(F)F)c2)C(C(=O)Nc2ccccc2S(C)(=O)=O)C1=O (stereo not drawn) [Compound 637] | 40 | 60 | 90 | 90 | 90 | 100 | 80 | 100 | 40 | 70 | 50 | 90 | 50 | 0 | 90 | 50 | 70 | 90 | 50 | 0 | Plant response rating, Galium [7, 23]: 50; Plant response rating, Kochia (Kochia (Kochia scoparia) [8]; [23]): 30; Plant response rating, Barnyardgrass [9, 24]: 90; Plant response rating, Blackgrass [10, 24]: 60; Plant response rating, Corn (corn (Zea mays); [24]): 70; Plant response rating, Foxtail, Giant [11, 23]: 90; Plant response rating, Pigweed [12, 23]: 60; Plant response rating, Ragweed [13, 23]: 20; Plant response rating, Ryegrass, Italian [14, 22]: 20; Plant response rating, Ryegrass, Italian [14, 23]: 20; Plant response rating, Wheat [15, 22]: 70; Plant response rating, Wheat [15, 23]: 70; Plant response rating, Barnyardgrass [16]: 80; Plant response rating, Ducksalad [17]: 100; Plant response rating, Rice (rice (Oryra sativa)): 10; Plant response rating, Sedge, Umbrella [18]: 0; Plant response rating (scale of 0 to 100), Blackgrass [19]: 70; Plant response rating, Blackgrass ([19]; 62 g ai/ha): 90; Plant response rating, Blackgrass ([19]; 125 g ai/ha): 90; Plant response rating, Blackgrass ([19]; 250 g ai/ha): 90 |
